Reference: ChEMBL document CHEMBL5346874, “New antiplasmodial 4-amino-thieno[3,2-d]pyrimidines with improved intestinal permeability and microsomal stability” (Eur J Med Chem, 2023)

Legend:
Plasmodium falciparum = assay: Antiplasmodial activity against blood stage Plasmodium falciparum K1 assessed as reduction in parasite growth incubated for 72 hrs by SYBR Green I fluorescence based method; assay type: functional, organism-based
[1] = (§1) Cytotoxicity against cynomolgus monkey Primary hepatocyte assessed as cell viability; assay type: toxicity, cell-based, Macaca fascicularis; details: primary hepatocytes
[2] = Selectivity index, ratio of CC50 for against Macaca fascicularis Primary hepatocyte to EC50 for hepatic stage of Plasmodium berghei sporozoites GFP ANKA; assay type: toxicity; details: cynomolgus monkey, primary hepatocytes; read-out: Ratio CC50/EC50
Plasmodium berghei = assay: Antimalarial activity against hepatic stage of Plasmodium berghei sporozoites GFP ANKA incubated for 3 hrs followed by replacement with fresh media for every 24 hrs by immunostaining analysis; assay type: functional, organism-based
[3] = Metabolic stability in CD-1 mouse liver microsomes assessed as half life at pH 7.4 measured upto 40 mins in presence of NADP; assay type: ADME, Microsome
[4] = Metabolic stability in CD-1 mouse liver microsomes assessed as intrinsic clearance at pH 7.4 measured upto 40 mins in presence of NADP; assay type: ADME, Microsome; details: read-out: CLH
[5] = Solubility of the compound in PBS buffer at 1 mg incubated for 10 mins by HPLC analysis; assay type: physicochemical
[6] = Chromatographic hydrophobicity index, log D of the compound at pH 7.4 by HPLC analysis; assay type: physicochemical
[7] = Effective permeability of compound at pH 7.4 incubated for 4 hrs by PAMPA-GIT assay; assay type: ADME; details: read-out: Peff
Hepatocyte = assay: as §1; assay type: toxicity, cell-based, Macaca fascicularis; details: hepatocytes
[8] = Effective permeability of compound at pH 6.0 incubated for 4 hrs by PAMPA-GIT assay; assay type: ADME; details: read-out: Peff
[9] = biological target: Voltage-gated inwardly rectifying potassium channel KCNH2 (Homo sapiens, UniProt Q12809); assay: Inhibition of human ERG incubated for 4 hrs by fluorescence polarization assay; assay type: toxicity
Voltage-gated inwardly rectifying potassium channel KCNH2, sequence (Q12809 whole entry): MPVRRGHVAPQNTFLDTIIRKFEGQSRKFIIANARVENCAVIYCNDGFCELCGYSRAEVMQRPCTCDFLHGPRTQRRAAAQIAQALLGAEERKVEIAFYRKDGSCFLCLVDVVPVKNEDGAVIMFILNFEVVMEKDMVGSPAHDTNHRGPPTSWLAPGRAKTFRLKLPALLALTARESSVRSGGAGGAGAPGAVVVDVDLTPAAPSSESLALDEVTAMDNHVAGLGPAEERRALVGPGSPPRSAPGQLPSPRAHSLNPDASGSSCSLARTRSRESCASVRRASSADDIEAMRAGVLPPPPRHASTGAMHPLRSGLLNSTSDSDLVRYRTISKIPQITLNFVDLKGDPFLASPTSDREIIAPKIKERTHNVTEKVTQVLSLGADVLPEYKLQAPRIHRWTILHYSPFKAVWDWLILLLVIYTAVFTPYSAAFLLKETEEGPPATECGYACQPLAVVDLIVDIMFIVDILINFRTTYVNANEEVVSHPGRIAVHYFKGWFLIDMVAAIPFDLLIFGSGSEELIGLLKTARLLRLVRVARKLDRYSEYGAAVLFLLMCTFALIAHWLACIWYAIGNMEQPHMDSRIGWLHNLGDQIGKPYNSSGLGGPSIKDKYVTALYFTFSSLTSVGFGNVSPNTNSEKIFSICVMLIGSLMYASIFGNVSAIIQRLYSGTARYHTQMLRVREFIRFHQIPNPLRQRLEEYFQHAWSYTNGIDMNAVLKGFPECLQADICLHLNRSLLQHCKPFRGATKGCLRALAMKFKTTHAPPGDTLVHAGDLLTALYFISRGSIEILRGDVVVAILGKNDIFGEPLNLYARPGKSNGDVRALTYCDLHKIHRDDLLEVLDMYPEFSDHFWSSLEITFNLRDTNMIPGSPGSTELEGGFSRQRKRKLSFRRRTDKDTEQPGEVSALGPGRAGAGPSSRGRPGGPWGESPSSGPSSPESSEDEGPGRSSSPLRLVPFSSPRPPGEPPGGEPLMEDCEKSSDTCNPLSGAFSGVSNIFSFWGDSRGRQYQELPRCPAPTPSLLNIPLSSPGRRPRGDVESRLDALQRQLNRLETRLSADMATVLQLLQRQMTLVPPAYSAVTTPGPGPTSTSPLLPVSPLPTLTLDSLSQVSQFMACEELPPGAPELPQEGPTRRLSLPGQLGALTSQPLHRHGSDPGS

[10] = Effective permeability of compound at pH 5 incubated for 4 hrs by PAMPA-GIT assay; assay type: ADME; details: read-out: Peff
[11] = Plasmodium falciparum, K1, 72 h

| SMILES | EC50 (Plasmodium falciparum; [11]) [µM] | CC50 [1] [µM] | selectivity ratio [2] | EC50 (Plasmodium berghei; Plasmodium berghei, GFP ANKA) [µM] | also measured |
| --- | --- | --- | --- | --- | --- |
| Cc1ccc(-c2cc3nc(NC(C)(C)C)nc(N4CCCCC4)c3s2)cc1 | 1.2 |  |  |  |  |
| Cc1ccc(-c2cc3nc(NC(C)(C)C)nc(N4CCC(NCc5cccc(C(F)(F)F)c5)CC4)c3s2)cc1 | 1.3 |  |  |  |  |
| Cc1ccc(-c2cc3nc(NC(C)(C)C)nc(NC4CCCCC4)c3s2)cc1 | 2.5 |  |  |  |  |
| Cc1ccc(-c2cc3nc(NC(C)(C)C)nc(NC4CCC4)c3s2)cc1 | 0.9 | 8.8 | 1.3 | 6.5 |  |
| Cc1ccc(-c2cc3nc(NC(C)(C)C)nc(N4CCOCC4)c3s2)cc1 | 1.6 |  |  |  |  |
| Cc1ccc(-c2cc3nc(NC(C)(C)C)nc(NC4CCCC4)c3s2)cc1 | 1.3 |  |  |  |  |
| COc1ccc(CNC2CCN(c3nc(NC(C)(C)C)nc4cc(-c5ccc(C)cc5)sc34)CC2)cc1 | 0.5 | 28.6 | 2 | 14 |  |
| Cc1ccc(-c2cc3nc(NC(C)(C)C)nc(N4CCC(NCc5ccc(C(F)(F)F)cc5)CC4)c3s2)cc1 | 1.7 |  |  |  |  |
| Cc1ccc(-c2cc3nc(NC(C)(C)C)nc(N4CCC(NCc5ccc(Cl)cc5)CC4)c3s2)cc1 | 1 | 36.1 | 2.5 | 14.2 |  |
| Cc1ccc(-c2cc3nc(NC(C)(C)C)nc(N4CCC(NCc5ccc(Br)cc5)CC4)c3s2)cc1 | 0.7 | 20.7 | 1.6 | 13.1 |  |
| Cc1ccc(-c2cc3nc(NC(C)(C)C)[nH]c(=O)c3s2)cc1.Cl |  |  |  |  | half-life [3]: 11 min; microsomal CLint [4]: 240 µL/min/mg; solubility at 10 min [5]: 7.92 µM; chromatographic logD [6]: 4.1; Papp at 4 h [7]: 0.46 ×10⁻⁶ cm/s |
| Cc1ccc(-c2cc3nc(NC(C)(C)C)nc(N4CCC(NC(=O)OC(C)(C)C)CC4)c3s2)cc1 | 2.1 |  |  |  |  |
| Cc1ccc(-c2cc3nc(NC(C)(C)C)nc(N4CCN(C)CC4)c3s2)cc1 | 1.2 |  |  |  |  |
| Cc1ccc(-c2cc3nc(NC(C)(C)C)nc(N4CCNCC4)c3s2)cc1 | 1.6 |  |  |  |  |
| Cc1ccc(CSc2cnc(NC(C)(C)C)nc2N2CCC(NCc3cccc(Cl)c3)CC2)cc1 | 1.2 |  |  |  |  |
| Cc1ccc(CNC2CCN(c3nc(NC(C)(C)C)nc4cc(-c5ccc(C)cc5)sc34)CC2)cc1 | 0.7 | 35.5 | 2.3 | 15.4 |  |
| Cc1ccc(-c2cc3nc(NC(C)(C)C)nc(N4CCC(NCc5ccc([N+](=O)[O-])cc5)CC4)c3s2)cc1 | 0.7 | 15.8 | 2.2 | 7.3 |  |
| Cc1ccc(-c2cc3nc(NC(C)(C)C)nc(NCCCN(C)C)c3s2)cc1.Cl.Cl |  |  |  |  | CC50 (Hepatocyte): 35.5 µM; EC50 (Plasmodium falciparum): 0.2 µM; half-life [3]: > 40 min; microsomal CLint [4]: 33 µL/min/mg; solubility at 10 min [5]: 1990 µM; EC50 (Plasmodium berghei): 14.4 µM; Papp at 4 h [8]: 47.8 ×10⁻⁶ cm/s; IC50 [9]: > 100 µM; chromatographic logD [6]: 4.29; Papp at 4 h [10]: 36.2 ×10⁻⁶ cm/s; Papp at 4 h [7]: 67.3 ×10⁻⁶ cm/s |

| SMILES | EC50 (Plasmodium falciparum; [11]) [µM] | CC50 [1] [µM] | selectivity ratio [2] | EC50 (Plasmodium berghei; Plasmodium berghei, GFP ANKA) [µM] | also measured |
| --- | --- | --- | --- | --- | --- |
| Cc1ccc(-c2cc3nc(NC(C)(C)C)nc(N4CCC4)c3s2)cc1 | 0.7 | 25.8 | 1.7 | 15.1 |  |
| Cc1ccc(-c2cc3nc(NC(C)(C)C)nc(N4CCCC4)c3s2)cc1 | 0.9 | 17.5 | 1.2 | 14.3 |  |
| Cc1ccc(-c2cc3nc(NC(C)(C)C)nc(NCCN(C)C)c3s2)cc1 | 0.3 |  | 1 | 13.8 | CC50 (Hepatocyte): 14 µM |
| Cc1ccc(-c2cc3nc(NC(C)(C)C)nc(N4CCC(C)CC4)c3s2)cc1 | 0.7 | 52.5 | 1.5 | 35.3 |  |
| CCN(CC)CCCC(C)Nc1ccnc2cc(Cl)ccc12 (stereo not given) [CHLOROQUINE] | 0.8 |  |  |  |  |
| CCN(CC)CCCNc1nc(NC(C)(C)C)nc2cc(-c3ccc(C)cc3)sc12 | 0.2 | 25.8 | 2.2 | 11.5 |  |
| C[C@H]1c2cccc(O)c2C(=O)C2=C(O)[C@]3(O)C(=O)C(C(N)=O)=C(O)[C@@H](N(C)C)[C@@H]3[C@@H](O)[C@@H]21 [DOXYCYCLINE] | 5 |  |  |  |  |
| CCN(CC)CCCNc1nc(NC(C)(C)C)nc2cc(-c3ccc(C)cc3)sc12.Cl.Cl |  |  |  |  | CC50 (Hepatocyte): 27.6 µM; half-life [3]: 37 min; microsomal CLint [4]: 61 µL/min/mg; solubility at 10 min [5]: 1400 µM; EC50 (Plasmodium berghei): 12.3 µM; Papp at 4 h [8]: 46.6 ×10⁻⁶ cm/s; IC50 [9]: 1.41 µM; chromatographic logD [6]: 4.23; Papp at 4 h [10]: 48.9 ×10⁻⁶ cm/s; Papp at 4 h [7]: 63.1 ×10⁻⁶ cm/s |
| Cc1ccc(-c2cc3nc(NC(C)(C)C)nc(N4CCC(NCc5ccccc5)CC4)c3s2)cc1 | 0.7 | 43.6 | 2.7 | 16.1 |  |
| Cc1ccc(-c2cc3nc(NC(C)(C)C)nc(N4CCSCC4)c3s2)cc1 | 4.9 |  |  |  |  |
| CCN(CC)CCNc1nc(NC(C)(C)C)nc2cc(-c3ccc(C)cc3)sc12 | 0.3 | 32.6 | 2.2 | 14.6 |  |
| Cc1ccc(-c2cc3nc(NC(C)(C)C)nc(NCCCN(C)C)c3s2)cc1 | 0.3 |  | > 6.5 | 15.3 | CC50 (Hepatocyte): > 100 µM |
| CCN(CC)CCNc1nc(NC(C)(C)C)nc2cc(-c3ccc(C)cc3)sc12.Cl.Cl |  |  |  |  | CC50 (Hepatocyte): 59.1 µM; half-life [3]: 37 min; microsomal CLint [4]: 63 µL/min/mg; solubility at 10 min [5]: 1140 µM; EC50 (Plasmodium berghei): 14.4 µM; Papp at 4 h [8]: 52.1 ×10⁻⁶ cm/s; IC50 [9]: 1.07 µM; chromatographic logD [6]: 4.81; Papp at 4 h [10]: 51.2 ×10⁻⁶ cm/s; Papp at 4 h [7]: 73.9 ×10⁻⁶ cm/s |
| Cc1ccc(-c2cc3nc(NC(C)(C)C)nc(N4CCC(N)CC4)c3s2)cc1 | 1 | 31.6 | 1 | 31.4 |  |
| Cc1ccc(-c2cc3nc(NC(C)(C)C)nc(NC4CC4)c3s2)cc1 | 1.1 |  |  |  |  |
| Cc1ccc(-c2cc3nc(NC(C)(C)C)[nH]c(=O)c3s2)cc1 | 0.2 | > 200 | > 8.2 | 24.3 |  |
| Cc1ccc(-c2cc3nc(NC(C)(C)C)nc(NCCN(C)C)c3s2)cc1.Cl.Cl |  |  |  |  | CC50 (Hepatocyte): 32.5 µM; EC50 (Plasmodium falciparum): 0.4 µM; half-life [3]: 37 min; microsomal CLint [4]: 64 µL/min/mg; solubility at 10 min [5]: 1640 µM; EC50 (Plasmodium berghei): 14.2 µM; Papp at 4 h [8]: 41.1 ×10⁻⁶ cm/s; IC50 [9]: 3.4 µM; chromatographic logD [6]: 4.5; Papp at 4 h [10]: 43 ×10⁻⁶ cm/s; Papp at 4 h [7]: 64.9 ×10⁻⁶ cm/s |
